From US20020146679A1, “Method for creating endothelial cell dysfunction in cell culture” (priority 2001, published 2002) come the findings set out here.

The subject of test [1] is EA hy926 endothelial cells. In words: Tube formation assay on MATRIGEL (in vitro angiogenesis). The class given is cell-based, human. To be noted: SNAP 200 μM co-incubated with TNFα 10 ng/mL for 6 days prior to plating on MATRIGEL
As to the method:
According to an aspect of the invention, EA hy926 (EA) cells are initially grown in standard endothelial cell culture medium consisting of MCDB 131 (Clonetics Corp.) supplemented with 10 fetal bovine serum (FBS) (Hyclone laboratories), 100 U/mL penicillin/streptomycin, 50 μg/mL gentamicin, and other endothelial growth supplements (EGM bullet kit, Clonetics Corp.). […] Cells were grown in these conditions for 6 to 7 days. EA cells are then dispersed by trypsinization, counted, suspended in EGM media containing […], and plated onto the surface of a MATRIGEL® basement membrane protein matrix (0.5 mL/well, dispensed into 24-well tissue culture plates according to the manufacturer's instructions) at a density of 5×10^5 cells per well (24 well plate). The cells were then placed in a CO2 incubator at 37° C. and observed over a 16- to 24-hour period for cell differentiation into tube-like structures resembling capillaries. […]
EBM medium and its supplement were purchased from Clonetics. […] EA cells were then dispersed by trypsinization, counted, suspended in EGM media containing 10% FBS, and plated onto the surface of a MATRIGEL® basement membrane matrix (0.5 mL/well, dispensed into 24-well tissue culture plates according to the manufacturer's instructions) at a density of 5×10^5 cells per well (24-well plate). […]

The test system of another test is EA hy926 cells. In words: Western blotting analysis of endothelial marker proteins. The class given is cell-based, human. To be noted: SNAP 200 μM co-incubated with TNFα for 6 days. The method, then: The whole cell lysates were generated by suspending cell pellets with protein lysis buffer containing 10 mM Tris.CI (pH 7.6), 1 mM EDTA (pH 8.0), 100 mM NaCI, 1 μg/mL aprotinin, and 100 μg/mL phenylmethylsulfonyl fluoride. The lysates were sonicated for 15 seconds at output control level 4 with Sonifier 450 model manufactured by VWR Scientific products. Fifty microgram lysates protein for each sample was electrophoretically separated in 8% to 16% Tris-Glycine Gel and transferred to a nitrocellulose membrane. The proteins on the membrane were stained with PONCEAS solution to check if the proteins loading and transfer were even. The membranes were separately incubated with 5% dry milk Phosphate-buffered saline (PBS) at room temperature for 2 hours and followed by overnight incubation at 4° C. with fresh 5% dry milk PBS containing primary antibodies at 1:2000 dilution. The peroxidase conjugated secondary antibodies was diluted at 1:4000 dilution with 5% PBS buffer. The incubation with secondary antibody was carried out at room temperature for 1 hour. The membranes were then subject to staining with ECL solution and exposure to films.

Each structure is given as a SMILES string.

Turning to `CC(=O)NC(C(=O)O)C(C)(C)SN=O` (racemic) [SNAP, S-Nitroso-N-acetyl-D, L-penicillamine, reference compound], in test [1], the “tube formation / protection from TNFα-induced dysfunction” value is on record as “protects cells from TNFα induced dysfunction”. In addition, in the test on EA hy926 cells, the PAI-1 protein expression result is “reduces”, the VCAM-1 protein expression entry is on record as “reduces” and the caveolin-1 protein expression result is on record as “reduces”.
